According to US11814445B2, “Cyclic polypeptides for PCSK9 inhibition” (Ra Pharmaceuticals, Inc., priority 2018, dated 2023):
pIC50: −log10 of the molar value. Numbered stars: 1 amine (or outer) side, 2 acyl side, 3 side chain; on linkers, the order of the positions; unused ones are H or OH. Bridge positions count the residues as written; N and C are the ends. Square brackets hold non-standard residues; d marks the D form. Peptide text beside a SMILES is read from it. ξ: configuration not given here. Phe(4-CF3) = N[C@@H](Cc1ccc(C(F)(F)F)cc1)C(=O)O; Phe(4-tBu) = CC(C)(C)c1ccc(C[C@H](N)C(=O)O)cc1; Trp(5-F) = N[C@@H](Cc1c[nH]c2ccc(F)cc12)C(=O)O; Bip = N[C@@H](Cc1ccc(-c2ccccc2)cc1)C(=O)O; X1 = O=C(CCSCc1cccc(CSCCN[*:1])c1)[*:2]; Pro(4,4-F2) = O=C(O)[C@@H]1CC(F)(F)CN1; 1Nal = N[C@@H](Cc1cccc2ccccc12)C(=O)O; 2Nal = N[C@@H](Cc1ccc2ccccc2c1)C(=O)O; mXylylene = c1cc(C[*:1])cc(C[*:2])c1; Bta = N[C@@H](Cc1csc2ccccc12)C(=O)O; NMeY = CN[C@@H](Cc1ccc(O)cc1)C(=O)O; hCha = N[C@@H](CCC1CCCCC1)C(=O)O; Cha = N[C@@H](CC1CCCCC1)C(=O)O; Pip = O=C(O)[C@@H]1CCCCN1; ξP = O=C(O)C1CCCN1; Mpa = O=C(O)CCS

Tests used:
Format in all cases: binding
[1] = target: T1, PCSK9 (Homo sapiens, UniProt Q8NBP7); test: PCSK9 Alexa FRET Plus assay (displacement of AlexaFluor647 tagged cyclic peptide Reagent B); settings: 0.5 nM PCSK9, 960 nM AF cyclic peptide Reagent B
T1 construct: biotin (biotinylated)
Description: A solution containing 1 nM biotinylated PCSK9+2.5 nM Lance Streptavidin Europium (Strep-Eu) was made in 50 mM HEPES pH 7.4, 0.15 M NaCl, 5 mM CaCl2), 0.01% BSA, and 0.01% Surfactant P20. A separate solution containing 1920 nM of the AlexaFluor tagged cyclic peptide was made in the same buffer system. An Echo was used to transfer 0.075 ul of compound plus 0.675 ul of DMSO to each well of an assay plate followed by the addition of 15 ul of PCSK9+Stept-Eu and 15 ul of AF peptide. The final assay volume was 30.750 ul containing 0.5 nM PCSK9, 1.25 nM Strep-Eu, and 960 nM AF cyclic peptide. The reaction was incubated at room temperature for at least two hours prior to fluorescence measurements using an Envision Multilabel Reader. IC50 values were determined by fitting data to a sigmoidal dose-response curve using nonlinear regression. Ki was then calculated from the IC50 and the KD of AF cyclic peptide. Counts (B-counts) of the europium-labeled PCSK9 were followed to observe if compounds were adversely affecting PCSK9. A fall off of the B-counts likely indicated a false positive of inhibition. Data from this procedure was reported as “P=‘numerical value’ (nanomolar)”

[2] = target: T1, PCSK9; test: PCSK9 Alexa FRET Standard assay (displacement of AlexaFluor647 tagged cyclic peptide Reagent A); settings: 0.5 nM PCSK9, 20 nM AF cyclic peptide Reagent A
Description: A solution containing 1 nM biotinylated PCSK9+2.5 nM Lance Streptavidin Europium (Strep-Eu) was made in 50 mM HEPES pH 7.4, 0.15 M NaCl, 5 mM CaCl2), 0.01% BSA, and 0.01% Surfactant P20. A separate solution containing 40 nM of the AlexaFluor tagged cyclic peptide was made in the same buffer system. An Echo was used to transfer 0.750 ul of compound to an assay plate followed by the addition of 15 ul of PCSK9+Stept-Eu and 15 ul of AF peptide. The final assay volume was 30.750 ul containing 0.5 nM PCSK9, 1.25 nM Strep-Eu, and 20 nM AF cyclic peptide. The reaction was incubated at room temperature for at least two hours prior to fluorescence measurements using an Envision Multilabel Reader. IC50 values were determined by fitting data to a sigmoidal dose-response curve using nonlinear regression. Ki was then calculated from the IC50 and the KD of AF cyclic peptide. Counts (B-counts) of the europium-labeled PCSK9 were followed to observe if compounds were […]. A fall off of the B-counts likely indicated a false positive of inhibition. Data from this procedure was reported as “A=‘numerical value’ (nanomolar)”

[3] = target: human PCSK9 / human LDLR EGFa domain (Homo sapiens, UniProt Q8NBP7); test: TR-FRET assay of inhibition of the PCSK9-LDLR protein-protein interaction; settings: 20 nM human PCSK9, 20 nM human LDLR EGFa domain, 2 hours room temperature
How it was run: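 Biotinylated PCSK9 (20 nM) and His-tagged LDLR EGFa domain (20 nM) were incubated 2 h at room temperature with 5 nM Ulight-streptavidin and 5 nM Eu-anti-His in HEPES/NaCl/CaCl2 buffer with 0.01% BSA and 0.01% P20. TR-FRET was read; half-maximal inhibitory concentrations came from 4-parameter dose-response fits.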

T1 sequence (Q8NBP7 153-692): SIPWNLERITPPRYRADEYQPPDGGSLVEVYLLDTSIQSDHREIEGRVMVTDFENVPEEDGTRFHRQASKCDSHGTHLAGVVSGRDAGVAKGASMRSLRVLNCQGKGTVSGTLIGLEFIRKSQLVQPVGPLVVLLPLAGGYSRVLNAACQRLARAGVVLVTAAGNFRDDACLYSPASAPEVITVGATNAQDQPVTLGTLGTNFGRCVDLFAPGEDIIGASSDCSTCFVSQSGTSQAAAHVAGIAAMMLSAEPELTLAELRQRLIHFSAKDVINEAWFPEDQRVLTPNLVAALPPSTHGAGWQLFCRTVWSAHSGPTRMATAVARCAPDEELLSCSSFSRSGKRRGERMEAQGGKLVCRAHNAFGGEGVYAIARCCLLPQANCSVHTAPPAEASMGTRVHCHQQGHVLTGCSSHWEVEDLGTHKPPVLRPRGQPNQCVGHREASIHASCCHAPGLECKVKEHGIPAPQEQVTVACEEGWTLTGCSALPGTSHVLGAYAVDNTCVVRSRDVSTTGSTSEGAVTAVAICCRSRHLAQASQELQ
human PCSK9 / human LDLR EGFa domain, sequence (Q8NBP7 153-692): as above

Row | pIC50 [1] | pIC50 [2] | pIC50 [3] | SMILES
1 | 6.30 to 7.00 | 7.00 to 9.00 | 7.00 to 9.00 | C[C@@H]1NC(=O)[C@@H]2CCCN2C(=O)[C@H](CCC2CCCCC2)NC(=O)[C@H](Cc2c[nH]c3ccc(F)cc23)NC(=O)CNC(=O)[C@H](CCCCN)NC(=O)CCSCc2cccc(c2)CSC[C@@H](C(N)=O)NC(=O)[C@@H]2CCCN2C(=O)[C@H](Cc2ccc(O)cc2)NC1=O [Compound 026] ([Mpa]KG[Trp(5-F)][hCha]PAYPC-NH2; linker 1-10 via mXylylene)
2 | 7.00 to 9.00 | 7.00 to 9.00 | 7.00 to 9.00 | C[C@@H]1NC(=O)[C@@H]2CCCN2C(=O)[C@H](Cc2ccc(C(C)(C)C)cc2)NC(=O)[C@H](Cc2c[nH]c3ccc(F)cc23)NC(=O)CNC(=O)[C@H](CCCCN)NC(=O)CCSCc2cccc(c2)CSC[C@@H](C(N)=O)NC(=O)[C@@H]2CCCN2C(=O)[C@H](Cc2ccc(O)cc2)NC1=O [Compound 016] ([Mpa]KG[Trp(5-F)][Phe(4-tBu)]PAYPC-NH2; linker 1-10 via mXylylene)
3 | 6.30 to 7.00 | 6.00 to 7.00 |  | COc1ccc(C[C@@H]2NC(=O)[C@H]([C@@H](C)O)NC(=O)[C@H]3C[C@@H](F)CN3C(=O)[C@H]3Cc4cn(c5ccc(F)cc45)Cc4cn(nn4)-c4cc(cc(c4)CSCCC(=O)N[C@@H](C)C(=O)N[C@H](C)C(=O)N[C@@H](Cc4c[nH]c5ccc(F)cc45)C(=O)N3)CSCCNC(=O)[C@]3(C)CCCN3C2=O)cc1 [Compound 130]
4 | 7.00 to 9.00 | 6.00 to 7.00 | 7.00 to 9.00 | C[C@@H]1NC(=O)CCSCc2cccc(c2)CSCCNC(=O)[C@@H]2CCCN2C(=O)[C@H](Cc2ccccc2)NC(=O)[C@H](C)NC(=O)[C@@H]2CCCN2C(=O)[C@H](Cc2c[nH]c3ccc(F)cc23)NC(=O)[C@H](Cc2c[nH]c3ccc(F)cc23)NC(=O)[C@@H](C)NC1=O [Compound 062] (cyclo(AFP[X1]A[dA][Trp(5-F)][Trp(5-F)]P))
5 |  | 7.00 to 9.00 | 6.00 to 7.00 | C[C@@H]1NC(=O)CCSCc2cccc(c2)CSC[C@@H](C(N)=O)NC(=O)[C@@H]2CCCN2C(=O)[C@H](Cc2ccc(C(F)(F)F)cc2)NC(=O)[C@H](C)NC(=O)[C@@H]2CCCN2C(=O)[C@H](Cc2c[nH]c3ccc(F)cc23)NC(=O)[C@H](Cc2c[nH]c3ccc(F)cc23)NC(=O)[C@@H](C)NC1=O [Compound 084] ([Mpa]A[dA][Trp(5-F)][Trp(5-F)]PA[Phe(4-CF3)]PC-NH2; linker 1-10 via mXylylene)
6 |  | 4.92 to 6.00 | 6.00 to 7.00 | C[C@@H]1NC(=O)[C@@H]2CCCN2C(=O)[C@H](Cc2ccc(-c3ccccc3)cc2)NC(=O)[C@H](Cc2c[nH]c3ccc(F)cc23)NC(=O)CNC(=O)[C@H](CCCCN)NC(=O)CCSCc2cccc(c2)CSC[C@@H](C(N)=O)NC(=O)[C@@H]2CCCN2C(=O)[C@H](Cc2ccc(O)cc2)NC1=O [Compound 017] ([Mpa]KG[Trp(5-F)][Bip]PAYPC-NH2; linker 1-10 via mXylylene)
7 |  | 6.00 to 7.00 | 6.00 to 7.00 | COc1ccc(C[C@@H]2NC(=O)[C@H]([C@@H](C)O)NC(=O)CN3CCCCCOc4cccc(c4)C[C@@H](NC(=O)[C@@H](C)NC(=O)[C@H](C)NC(=O)CCSCc4cccc(c4)CSCCNC(=O)[C@]4(C)CCCN4C2=O)C(=O)N[C@@H](Cc2c[nH]c4ccc(F)cc24)C3=O)cc1 [Compound 125]
8 |  | 7.00 to 9.00 | 7.00 to 9.00 | C[C@@H]1NC(=O)[C@@H]2CCCN2C(=O)[C@H](Cc2cccc3ccccc23)NC(=O)[C@H](Cc2c[nH]c3ccc(F)cc23)NC(=O)CNC(=O)[C@H](CCCCN)NC(=O)CCSCc2cccc(c2)CSC[C@@H](C(N)=O)NC(=O)[C@@H]2CCCN2C(=O)[C@H](Cc2ccc(O)cc2)NC1=O [Compound 012] ([Mpa]KG[Trp(5-F)][1Nal]PAYPC-NH2; linker 1-10 via mXylylene)
9 | 7.00 to 9.00 | 7.00 to 9.00 | 7.00 to 9.00 | C[C@@H]1NC(=O)[C@@H]2CCCN2C(=O)[C@H](CC2CCCCC2)NC(=O)[C@H](Cc2c[nH]c3ccc(F)cc23)NC(=O)CNC(=O)[C@H](CCCCN)NC(=O)CCSCc2cccc(c2)CSC[C@@H](C(N)=O)NC(=O)[C@@H]2CCCN2C(=O)[C@H](Cc2ccc(O)cc2)NC1=O [Compound 025] ([Mpa]KG[Trp(5-F)][Cha]PAYPC-NH2; linker 1-10 via mXylylene)
10 |  | 4.92 to 6.00 | 6.00 to 7.00 | COc1ccc(C[C@H]2C(=O)N3CCC[C@H]3C(=O)NCCSCc3cccc(c3)CSCCC(=O)N3CCC[C@H]3C(=O)N[C@H](C)C(=O)N[C@@H](Cc3c[nH]c4ccc(F)cc34)C(=O)N[C@@H](Cc3c[nH]c4ccc(F)cc34)C(=O)N3CCC[C@H]3C(=O)N[C@@H](C)C(=O)N2C)cc1 [Compound 053] (cyclo(A[NMeY](Me)P[X1]P[dA][Trp(5-F)][Trp(5-F)]P))
11 |  | 6.00 to 7.00 | 6.00 to 7.00 | C[C@@H]1NC(=O)[C@@H]2CC(F)(F)CN2C(=O)[C@H](Cc2c[nH]c3ccc(F)cc23)NC(=O)[C@H](Cc2c[nH]c3ccc(F)cc23)NC(=O)[C@@H](C)NC(=O)[C@H](CCCCN)NC(=O)CCSCc2cccc(c2)CSC[C@@H](C(N)=O)NC(=O)[C@@H]2CCCN2C(=O)[C@H](Cc2ccc(O)cc2)NC1=O [Compound 036] ([Mpa]K[dA][Trp(5-F)][Trp(5-F)][Pro(4,4-F2)]AYPC-NH2; linker 1-10 via mXylylene)
12 | 7.00 to 9.00 | 7.00 to 9.00 |  | COc1ccc(C[C@@H]2NC(=O)[C@H]([C@@H](C)OC)NC(=O)[C@H]3CCCN3C(=O)[C@H]3Cc4cn(c5ccc(F)cc45)Cc4cn(nn4)-c4cc(cc(c4)CSCCC(=O)N[C@@H](C)C(=O)N[C@H](C)C(=O)N[C@@H](Cc4c[nH]c5ccc(F)cc45)C(=O)N3)CSCCNC(=O)[C@]3(C)CCCN3C2=O)cc1 [Compound 131]
13 |  | 7.00 to 9.00 | 7.00 to 9.00 | NCCCC[C@@H]1NC(=O)CCSCc2cccc(c2)CSCCNC(=O)C2CCCN2C(=O)[C@H](Cc2ccc(O)cc2)NC(=O)CNC(=O)[C@H]2CCCN2C(=O)[C@H](Cc2c[nH]c3ccc(F)cc23)NC(=O)[C@H](Cc2c[nH]c3ccc(F)cc23)NC(=O)CNC1=O (some centres unmarked) [Compound 041] (cyclo(G[Trp(5-F)][Trp(5-F)][dP]GY[ξP][X1]K))
14 |  | 7.00 to 9.00 | 6.00 to 7.00 | COc1ccc(C[C@@H]2NC(=O)[C@H](C)NC(=O)[C@@H]3CCCN3C(=O)[C@@H]3Cc4cn(c5ccc(F)cc45)Cc4cn(nn4)-c4c(cccc4CSCCC(=O)N[C@H](C)C(=O)NCC(=O)N[C@@H](Cc4c[nH]c5ccc(F)cc45)C(=O)N3)CSCCNC(=O)[C@]3(C)CCCN3C2=O)cc1 [Compound 128]
15 | 7.00 to 9.00 | 7.00 to 9.00 | 7.00 to 9.00 | C[C@@H]1NC(=O)CCSCc2cccc(c2)CSCCNC(=O)[C@@H]2CCCN2C(=O)[C@H](Cc2ccc3ccccc3c2)NC(=O)[C@H](C)NC(=O)[C@@H]2CCCCN2C(=O)[C@H](Cc2c[nH]c3ccc(F)cc23)NC(=O)[C@H](Cc2c[nH]c3ccc(F)cc23)NC(=O)[C@@H](C)NC1=O [Compound 089] (cyclo([2Nal]P[X1]A[dA][Trp(5-F)][Trp(5-F)][Pip]A))
16 | 7.00 to 9.00 | 7.00 to 9.00 | 7.00 to 9.00 | C[C@@H]1NC(=O)[C@@H]2CCCN2C(=O)[C@H](Cc2csc3ccccc23)NC(=O)[C@H](Cc2c[nH]c3ccc(F)cc23)NC(=O)CNC(=O)[C@H](CCCCN)NC(=O)CCSCc2cccc(c2)CSC[C@@H](C(N)=O)NC(=O)[C@@H]2CCCN2C(=O)[C@H](Cc2ccc(O)cc2)NC1=O [Compound 024] ([Mpa]KG[Trp(5-F)][Bta]PAYPC-NH2; linker 1-10 via mXylylene)
